Measured values published in US8129367B2, “Compounds for the treatment of Hepatitis C” (Bristol-Myers Squibb Company, priority 2007, dated 2012).

Tests used:
HCV NS5B = target: T1, HCV NS5B (Hepatitis C virus genotype 1b, UniProt Q9WMX2); assay: HCV NS5B RdRp enzyme assay; assay type: biochemical; conditions: HCV NS5B RdRp genotype 1b enzyme
T1 construct: The protein was expressed with an 18 amino acid C-terminal truncation to enhance the solubility; made in house; host or cells: E. coli BL21(DE3)
T1 sequence (Q9WMX2 2420-2992): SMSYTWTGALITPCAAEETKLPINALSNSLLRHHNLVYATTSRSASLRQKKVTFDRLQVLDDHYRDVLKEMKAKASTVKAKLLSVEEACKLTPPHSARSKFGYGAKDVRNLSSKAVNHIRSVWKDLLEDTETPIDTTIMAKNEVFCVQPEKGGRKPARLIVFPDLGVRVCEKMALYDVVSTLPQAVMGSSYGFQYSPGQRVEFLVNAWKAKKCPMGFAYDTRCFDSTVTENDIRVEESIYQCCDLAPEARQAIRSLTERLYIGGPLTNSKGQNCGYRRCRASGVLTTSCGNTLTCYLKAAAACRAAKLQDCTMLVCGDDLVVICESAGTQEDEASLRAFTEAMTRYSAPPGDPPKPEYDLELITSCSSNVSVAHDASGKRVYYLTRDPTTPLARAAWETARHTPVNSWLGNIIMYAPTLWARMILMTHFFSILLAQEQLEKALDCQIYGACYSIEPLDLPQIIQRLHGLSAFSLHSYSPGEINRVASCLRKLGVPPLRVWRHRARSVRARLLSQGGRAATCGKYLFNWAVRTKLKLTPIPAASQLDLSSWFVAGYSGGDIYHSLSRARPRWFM
Description: HCV NS5B RdRp cloning, expression, and purification. The cDNA encoding the NS5B protein of HCV, genotype 1b, was cloned into the pET21a expression vector. The protein was expressed with an 18 amino acid C-terminal truncation to enhance the solubility. The E. coli competent cell line BL21(DE3) was used for expression of the protein. Cultures were grown at 37° C. for ˜4 hours until the cultures reached an optical density of 2.0 at 600 nm. The cultures were cooled to 20° C. and induced with 1 mM IPTG. Fresh ampicillin was added to a final concentration of 50 μg/ml and the cells were grown overnight at 20° C.
Cell pellets (3 L) were lysed for purification to yield 15-24 mgs of purified NS5B. The lysis buffer consisted of 20 mM Tris-HCl, pH 7.4, 500 mM NaCl, 0.5% triton X-100, 1 mM DTT, 1 mM EDTA, 20% glycerol, 0.5 mg/ml lysozyme, 10 mM MgCl2, 15 ug/ml deoxyribonuclease I, and Complete™ protease inhibitor tablets (Roche). After addition of the lysis buffer, frozen cell pellets were resuspended using a tissue homogenizer. To reduce the viscosity of the sample, aliquots of the lysate were sonicated on ice using a microtip attached to a Branson sonicator. The sonicated lysate was centrifuged at 100,000×g for 1 hr at 4° C. and filtered through a 0.2 μm filter unit (Corning).
The protein was purified using two sequential chromatography steps: Heparin sepharose CL-6B and polyU sepharose 4B (Pharmacia). The chromatography buffers were identical to the lysis buffer but contained no lysozyme, deoxyribonuclease I, MgCl2 or protease inhibitor and the NaCl concentration of the buffer was adjusted according to the requirements for charging the protein onto the column. Each column was eluted with a NaCl gradient which varied in length from 5-50 column volumes depending on the column type. After the final chromatography step, the resulting purity of the enzyme is >90% based on SDS-PAGE analysis. The enzyme was aliquoted and stored at −80° C.
Standard HCV NS5B RdRp enzyme assay. HCV RdRp genotype 1b assays were run in a final volume of 60 μl in 96 well plates (Corning 3600). The assay buffer is composed of 20 mM Hepes, pH 7.5, 2.5 mM KCl, 2.5 mM MgCl2, 1 mM DTT, 1.6 U RNAse inhibitor (Promega N2515), 0.01 mg/ml BSA (Sigma B6917), and 2% glycerol. All compounds were serially diluted (3-fold) in DMSO and diluted further in water such that the final concentration of DMSO in the assay was 2%. HCV RdRp genotype 1b enzyme was used at a final concentration of 28 nM. A polyA template was used at 6 nM, and a biotinylated oligo-dT12 primer was used at 180 nM final concentration. Template was obtained commercially (Amersham 27-4110). Biotinylated primer was prepared by Sigma Genosys. 3H-UTP was used at 0.6 μCi (0.29 μM total UTP). Reactions were initiated by the addition of enzyme, incubated at 30° C. for 60 min, and stopped by adding 25 μl of 50 mM EDTA containing SPA beads (4 μg/μl, Amersham RPNQ 0007). Plates were read on a Packard Top Count NXT after >1 hr incubation at room temperature.
Modified HCV NS5B RdRp enzyme assay. A modified enzyme assay was performed essentially as described for the standard enzyme assay except for the following: The biotinylated oligo dT12 primer was precaptured on streptavidin-coated SPA beads by mixing primer and beads in assay buffer and incubating at room temperature for one hour. Unbound primer was removed after centrifugation. The primer-bound beads were resuspended in 20 mM Hepes buffer, pH 7.5 and used in the assay at final concentrations of 20 nM primer and 0.67 μg/μl beads. Order of addition in the assay: enzyme (1.75 nM) was added to diluted compound followed by the addition of a mixture of template (0.36 nM), 3H-UTP (0.6 μCi, 0.29 μM), and primer-bound beads, to initiate the reaction; concentrations given are final. Reactions were allowed to proceed for 4 hours at 30° C.
IC50 values for compounds were determined using seven different [I]. […]

HCV replicon cells = assay: HCV replicon FRET / luciferase assay; assay type: cell-based; conditions: Hepatitis C virus; 50% reduction in FRET or luciferase activity in HCV replicon cells
Description: FRET Assay Preparation. The HCV FRET screening assay was performed in 96-well cell culture plates. The FRET peptide (Anaspec, Inc.) (Taliani et al., Anal. Biochem. 1996, 240, 60-67) contains a fluorescence donor, EDANS, near one end of the peptide and an acceptor, DABCYL, near the other end. The fluorescence of the peptide is quenched by […] resonance energy transfer (RET) between the donor and the acceptor, but as the NS3 protease cleaves the peptide the products are released from RET quenching and the fluorescence of the donor becomes apparent. The assay reagent was made as follows: 5× cell Luciferase cell culture lysis reagent from Promega (#E153A) diluted to 1× with dH2O, NaCl added to 150 mM final, the FRET peptide diluted to 20 μM final from a 2 mM stock.
To prepare plates, HCV replicon cells, with or without a Renilla luciferase reporter gene, were trypsinized and plated in a 96-well plate with titrated test compounds added in columns 3 through 12; columns 1 and 2 contained a control compound (HCV control inhibitor), and the bottom row contained cells with DMSO only. The plates were then placed in a CO2 incubator at 37° C.
Assays. Subsequent to addition of the test compounds described above (FRET Assay Preparation), at various times the plate was removed and Alamar blue solution (Trek Diagnostics, #00-100) was added to measure cellular toxicity. After reading in a Cytoflour 4000 instrument (PE Biosystems), plates were rinsed with PBS and then used for FRET assay by the addition of 30 ul of the FRET peptide assay reagent described above (FRET Assay Preparation) per well. The plate was then placed into the Cytoflour 4000 instrument which had been set to 340 excite/490 emission, automatic mode for up to 20 cycles and the plate read in a kinetic mode. Typically, the signal to noise using an endpoint analysis after the reads was at least three-fold. Alternatively, after Alamar blue reading, plates were rinsed with PBS, then used for luciferase assay using the Promega Dual-Glo Luciferase Assay System or the Promega EnduRen Live Cell Substrate assay.
Compound analysis was performed by quantification of the relative HCV replicon inhibition and the relative cytotoxicity values. To calculate cytoxicity values, the average Alamar Blue fluorescence signals from the control wells were set as 100% non-toxic. The individual signals in each of the compound test wells were then divided by the average control signal and multiplied by 100% to determine […]. To calculate the HCV replicon inhibition values, an average background value was obtained from the two wells containing the highest amount of HCV control inhibitor at the end of the assay period. These numbers were similar to those obtained from naïve Huh-7 cells. The background numbers were then subtracted from the average signal obtained from the control wells and this number was used as 100% activity. The individual signals in each of the compound test wells were then divided by the averaged control values after background subtraction and multiplied by 100% to determine percent activity. EC50 values were calculated as the concentration which caused a 50% reduction in FRET or luciferase activity. The two numbers generated for the compound plate, percent cytoxicity and percent activity, were used to determine compounds of interest for further analysis.

SMILES	IC50 (HCV NS5B) [nM]	EC50 (HCV replicon cells) [nM]
COc1ccc2c(c1)C1CC1(C(=O)N1C3CCC1CN(C)C3)Cn1c-2c(C2CCCCC2)c2ccc(C(=O)NC(C)(C)C(=O)N(C)C)cc21 (stereo not drawn)	4.2 to 500	4.2 to 500
COc1ccc2c(c1)C1CC1(C(=O)N1C3CCC1CN(C)C3)Cn1c-2c(C2CCCCC2)c2ccc(C(=O)NS(=O)(=O)C3(Cc4ccccc4)CC3)cc21 (stereo not drawn)	4.2 to 500	4.2 to 500
CCC#CCC1(S(=O)(=O)NC(=O)c2ccc3c(C4CCCCC4)c4n(c3c2)CC2(C(=O)N3C5CCC3CN(C)C5)CC2c2cc(OC)ccc2-4)CC1 (stereo not drawn)	4.2 to 500	4.2 to 500
COc1ccc2c(c1)C1CC1(C(=O)N1C3CCC1CN(C)C3)Cn1c-2c(C2CCCCC2)c2ccc(C(=O)NS(=O)(=O)C3([Si](C)(C)C)CC3)cc21 (stereo not drawn)	4.2 to 500	4.2 to 500
COc1ccc2c(c1)C1CC1(C(=O)N1C3CCC1CN(C)C3)Cn1c-2c(C2CCCCC2)c2ccc(C(=O)NS(=O)(=O)C3(C(=O)c4ccccc4)CC3)cc21 (stereo not drawn)	4.2 to 500	4.2 to 500
COc1ccc2c(c1)C1CC1(C(=O)N1C3CCC1CN(C)C3)Cn1c-2c(C2CCCCC2)c2ccc(C(=O)NS(=O)(=O)c3ccccc3C#N)cc21 (stereo not drawn)	4.2 to 500	4.2 to 500
COCCS(=O)(=O)NC(=O)c1ccc2c(C3CCCCC3)c3n(c2c1)CC1(C(=O)N2C4CCC2CN(C)C4)CC1c1cc(OC)ccc1-3 (stereo not drawn)	4.2 to 500	4.2 to 500
COc1ccc2c(c1)C1CC1(C(=O)N1C3CCC1CN(C)C3)Cn1c-2c(C2CCCCC2)c2ccc(C(=O)NS(=O)(=O)c3ccco3)cc21 (stereo not drawn)	4.2 to 500	4.2 to 500
COc1ccc2c(c1)C1CC1(C(=O)N1C3CCC1CN(C)C3)Cn1c-2c(C2CCCCC2)c2ccc(C(=O)NS(=O)(=O)C3(C(=O)Nc4ccccc4)CC3)cc21 (stereo not drawn)	4.2 to 500	4.2 to 500
COc1ccc2c(c1)C1CC1(C(=O)N1C3CCC1CN(C)C3)Cn1c-2c(C2CCCCC2)c2ccc(C(=O)NS(=O)(=O)c3c(C)noc3C)cc21 (stereo not drawn)	4.2 to 500	4.2 to 500
COc1ccc2c(c1)C1CC1(C(=O)N1C3CCC1CN(C)C3)Cn1c-2c(C2CCCCC2)c2ccc(C(=O)NS(=O)(=O)c3cn(C)cn3)cc21 (stereo not drawn)	4.2 to 500	4.2 to 500
COc1ccc2c(c1)C1CC1(C(=O)N1C3CCC1CN(C)C3)Cn1c-2c(C2CCCCC2)c2ccc(C(=O)NS(=O)(=O)c3ccc(C)cn3)cc21 (stereo not drawn)	4.2 to 500	4.2 to 500
COc1ccc2c(c1)C1CC1(C(=O)N1C3CCC1CN(C)C3)Cn1c-2c(C2CCCCC2)c2ccc(C(=O)NS(=O)(=O)c3ccccc3)cc21 (stereo not drawn)	4.2 to 500	4.2 to 500
COc1ccc2c(c1)C1CC1(C(=O)N1C3CCC1CN(C)C3)Cn1c-2c(C2CCCCC2)c2ccc(C(=O)NS(=O)(=O)c3cnccc3Cl)cc21 (stereo not drawn)	4.2 to 500	4.2 to 500
C=CCC1(S(=O)(=O)NC(=O)c2ccc3c(C4CCCCC4)c4n(c3c2)CC2(C(=O)N3C5CCC3CN(C)C5)CC2c2cc(OC)ccc2-4)CC1 (stereo not drawn)	4.2 to 500	4.2 to 500
COc1ccc2c(c1)C1CC1(C(=O)N1C3CCC1CN(C)C3)Cn1c-2c(C2CCCCC2)c2ccc(C(=O)NS(=O)(=O)c3cccs3)cc21 (stereo not drawn)	4.2 to 500	4.2 to 500
COc1ccc2c(c1)C1CC1(C(=O)N1C3CCC1CN(C)C3)Cn1c-2c(C2CCCCC2)c2ccc(C(=O)NS(=O)(=O)CC3CCCO3)cc21 (stereo not drawn)	4.2 to 500	4.2 to 500
COc1ccc2c(c1)C1CC1(C(=O)N1C3CCC1CN(C)C3)Cn1c-2c(C2CCCCC2)c2ccc(C(=O)NS(=O)(=O)C3CCOCC3)cc21 (stereo not drawn)	4.2 to 500	4.2 to 500
COc1ccc2c(c1)C1CC1(C(=O)N1C3CCC1CN(C)C3)Cn1c-2c(C2CCCCC2)c2ccc(C(=O)NS(=O)(=O)Cc3ccccc3)cc21 (stereo not drawn)	4.2 to 500	4.2 to 500
COc1ccc2c(c1)C1CC1(C(=O)N1C3CCC1CN(C)C3)Cn1c-2c(C2CCCCC2)c2ccc(C(=O)NS(=O)(=O)N3CCCO3)cc21 (stereo not drawn)	4.2 to 500	< 70
COc1ccc2c(c1)C1CC1(C(=O)N1C3CCC1CN(C)C3)Cn1c-2c(C2CCCCC2)c2ccc(C(=O)NS(=O)(=O)c3ccc(C)cc3OC)cc21 (stereo not drawn)	4.2 to 500	4.2 to 500
